{
  "source": "patent US10500169B2",
  "about": "“Supression of IgE production by compounds derived from traditional chinese medicine” (Sean N. Parker Foundation, priority 2014, dated 2019)",
  "key": {"human PBMCs": {"system": "human PBMCs", "experiment": "IgE production by PBMCs from food allergic patients stimulated with rIL-4 and anti-CD40 mAb, ELISA", "assay_type": "cell-based", "conditions": "10 days", "method": "PBMCs were isolated by Ficoll Hypaque (Pharmacia, Piscataway, N.J.) using density gradient centrifugation at 1800 RPM for 30 minutes, and washed 3 times in PBS. To determine the optimal stimulation of IgE production by PBMCs, PBMCs at 1.5×10^6 cells/mL were suspended in complete RPMI medium (200 μM L-glutamine, 1% penicillin/streptomycin, 25 mM HEPES, 10% heat inactivated fetal calf serum), and co-stimulated with human recombinant IL-4 (rIL-4) at 0.01 and 0.1 μg/mL (R&D Systems, Minneapolis, Minn., USA) and anti-CD40 monoclonal antibody (mAb) at […] (R&D) for 10 and 14 days. At the end of incubation, the supernatants were collected and IgE levels were analyzed using ELISA kit (Mabtech Inc, OH). Since PBMCs stimulated with 100 ng/mL rIL-4 and 1 μg/mL anti-CD40 mAb produced the highest level of IgE, we used this culture condition for the subsequent studies. PBMCs were stimulated with 100 ng/mL rIL-4 and 1 μg/mL anti-CD40 mAb and cultured in the presence or absence of 20 μg/mL of the two purified compounds for 10 days for screening active compounds, and at different concentrations (0.15, 0.31, 0.62, 1.25, 2.5, 5, 10 μg/mL) to examine dose responses for the effective compounds. IgE level was evaluated using ELISA. The percentage of IgE inhibition was calculated as follows: […]. In some cases if enough PBMCs were obtained, aliquots of PBMCs prepared from the same individuals were used for different experiments."}, "IL-5": {"system": "IL-5", "experiment": "RT-PCR gene expression in stimulated PBMCs: IL-5", "assay_type": "cell-based, human", "conditions": "10 μg/mL", "method": "(§1) Quantitative real time PCR was used to detect the epsilon germline transcription. Human PBMC cells (1.5×10^6 cells/mL) were co-incubated with DMF-C1 compound (10 μg/mL) at 37° C. under 5% CO2 for 4 days. Cells were then harvested and total RNA was isolated using Trizol reagent (Gibco BRL, Rockville, Md.) following the manufacturer's instructions. The RNA concentrations were then quantified by triplicate optical density (OD) readings (Bio-Rad SmartSpect 3000; Bio-Rad, Hercules, Calif.). The reverse transcription was performed to get the cDNA using ImProm-II™ Reverse Transcriptase (Promega Corporation, Madison, Wis.) as described by the manufacturer's instructions. The RT-PCR amplification was performed using Maxima™ SYBR Green qPCR Master Mix (2×) kit (Fisher Scientific, Pittsburgh, Pa.) with epsilon germline primers or GAPDH primers. The primer sequences were listed as εGLT forward: 5′-[…]-3′; εGLT reverse: 5′-[…]-3′; GAPDH-forward: 5′-[…]-3′; GAPDH-reverse: 5′-[…]-3′; STAT3-forward: 5′-[…]-3′; STAT3-reverse: 5′-[…]-3′; T-bet-forward: 5′-[…]-3′; T-bet-reverse: 5′-[…]-3′; IFN-γ-forward: 5′-[…]-3′; IFN-γ-reverse: 5′-[…]-3′; IL-10-forward: 5′-[…]-3′; IL-10-reverse: 5′-[…]-3′. IL-5-forward. 5′-[…] TGCA-3′; IL-5-reverse: 5′-[…]-3′. All primers were synthesized by Sigma-Aldrich Corporation (St. Louis, Mo.)."}, "Foxp3": {"system": "Foxp3", "experiment": "RT-PCR gene expression in stimulated PBMCs: Foxp3", "assay_type": "cell-based, human", "conditions": "10 μg/mL", "method": "as §1"}},
  "data": [
    {"compound": "COc1ccc2cc3[n+](cc2c1OC)CCc1cc2c(cc1-3)OCO2", "note": "[berberine]", "values": [
      {"measurement": "inhibition of IgE production by human PBMCs", "setting": "human PBMCs; 20 μg/mL, rIL-4 100 ng/mL + anti-CD40 mAb 1 μg/mL", "result": "completely inhibited"},
      {"measurement": "inhibition at 0.62 µg/mL", "setting": "human PBMCs; Homo sapiens, PBMC, 240 h, 0.62 μg/mL, read-out: inhibition percentage of IgE production by PBMCs", "result": "80.7 ± 9.24", "unit": "%"},
      {"measurement": "IC50", "setting": "human PBMCs; Homo sapiens, PBMC, 240 h, rIL-4 + anti-CD40 mAb, read-out: IC50 of inhibition of IgE production by PBMCs", "result": 0.2, "unit": "µg/mL"},
      {"measurement": "mRNA level of IL-5", "setting": "IL-5", "result": "significantly decreased"},
      {"measurement": "mRNA level of Foxp3", "setting": "Foxp3", "result": "trend of increase"}
    ]}
  ]
}
